This passage reports IC50 results from US20260364185A1, “Estrogen Receptor Modulator and Use Thereof” (JIANGSU VCARE PHARMATECH CO., LTD., priority 2023, published 2026).

The assay concerns MCF7 cells. Put plainly: MCF7 cell activity test (CCK8 proliferation inhibition). The class given is cell-based. To be noted: Homo sapiens, MCF7, 144 h, 6 days incubation. On the procedure:
Experimental Example 1: MCF7 cell activity test
Cell culture: MCF7 cells (culture conditions: MEM medium+20% FBS+1% essential amino acids++1 mg/100 ml insulin, 37° C., 5% CO2). Plating: The cells subcultured into the logarithmic growth phase were collected and transferred into a centrifuge tube, and centrifuged at 800 rpm for 5 min. The cells were resuspended in complete medium and counted. The cells were diluted and adjusted to a final concentration of 30,000 cells/mL. The cells were then seeded into a 96-well plate with 100 μL per well and incubated in an incubator overnight. Administration: Each group of drug solutions was added into the 96-well plate, 100 μL per well, n=3 for each drug concentration. Meanwhile, negative wells (n=6) and blank wells (n=3) were set up. The 96-well plate was incubated in the incubator for further 6 days. CCK8 reagent was added to the 96-well plate, 20 μL per well, and then the plate was placed in the incubator for further 4 h. The absorbance of the solution was measured at a wavelength of 450 nm using an enzyme reader. The proliferation inhibition rate was calculated and the half inhibitory concentration IC50 value was calculated using Graphpad Prism 6.0 software.
With `Cn1nc(N2CCC(=O)NC2=O)c2cc(F)c(C3CCN(C[C@H]4CCCC[C@@H]4CN4CCN(c5ccc([C@@H]6c7ccc(O)cc7CC[C@@H]6c6ccccc6)cc5)CC4)CC3(F)F)cc21` (stereo in doubt) [IV-12], the half-maximal inhibitory concentration (IC50) (commonly the concentration that inhibits the measured activity by half) was less than 0.1 µM. The figure for `O=C1CCC(NC(=O)c2ccc(C3CCN(C[C@@H]4CCCC[C@H]4CN4CCN(c5ccc([C@@H]6c7ccc(O)cc7CC[C@@H]6c6ccccc6)cc5)CC4)CC3)cc2F)C(=O)N1` (stereo partly drawn) [Compound I-67, N-(2,6-dioxopiperidin-3-yl)-2-fluoro-4-(1-(((1R,2R)-2-((4-(4-((1R,2S)-6-hydroxy-2-phenyl-1,2,3,4-tetrahydronaphthalen-1-yl)phenyl)piperazin-1-yl)methyl)cyclohexyl)methyl)piperidin-4-yl)benzamide] is less than 0.1 µM; for `O=C1CCC(NC(=O)c2ccc(N3CCN(C[C@@H]4CCCC[C@H]4CN4CCN(c5ccc([C@@H]6c7ccc(O)cc7CC[C@@H]6c6ccccc6)cc5)CC4)CC3)cc2F)C(=O)N1` (stereo partly shown) [Compound I-69] it is less than 0.025 µM; for `Cc1nc2cc(N3CCN(C[C@@H]4CCCC[C@H]4CN4CCN(c5ccc([C@@H]6c7ccc(O)cc7CC[C@@H]6c6ccccc6)cc5)CC4)CC3)ccc2n1C1CCC(=O)NC1=O` (stereo partly shown) [Compound V-1] it is less than 0.1 µM. The result for `O=C1CCC(n2cnc3cc(N4CCN(C[C@@H]5CCCC[C@H]5CN5CCN(c6ccc([C@@H]7c8ccc(O)cc8CC[C@@H]7c7ccccc7)cc6)CC5)CC4)c(F)cc32)C(=O)N1` (stereo partly shown) [Compound V-2] reads less than 0.05 µM. The molecule `O=C1CCC(n2cnc3cc(N4CCN(C[C@@H]5CCCC[C@H]5CN5CCN(c6ccc([C@@H]7c8ccc(O)cc8CC[C@@H]7c7ccccc7)cc6)CC5)CC4)ccc32)C(=O)N1` (stereo partly shown) [Compound V-3] came in with an IC50 of less than 0.05 µM.

As for `O=C1CCC(n2cnc3cc(C4CCN(C[C@@H]5CCCC[C@H]5CN5CCN(c6ccc([C@@H]7c8ccc(O)cc8CC[C@@H]7c7ccccc7)cc6)CC5)CC4)c(F)cc32)C(=O)N1` (stereo partly shown) [Compound V-5], the IC50 was less than 0.1 µM.

As to `O=C1CCC(n2cnc3cc(C4CCN(C[C@@H]5CCCC[C@H]5CN5CCN(c6ccc([C@@H]7c8ccc(O)cc8CC[C@@H]7c7ccccc7)cc6)CC5)CC4)ccc32)C(=O)N1` (stereo partly shown) [Compound V-7], the IC50 is less than 0.1 µM. The figure for `O=C1CCC(NC(=O)c2ccc(N3CCN(C[C@@H]4CCCC[C@H]4CN4CCN(c5ccc([C@@H]6c7ccc(O)cc7CC[C@@H]6c6ccccc6)cc5)CC4)CC3)cn2)C(=O)N1` (stereo partly drawn) [III-1, N-(2,6-dioxopiperidin-3-yl)-5-(4-(((1R,2R)-2-((4-(4-((1R,2S)-6-hydroxy-2-phenyl-1,2,3,4-tetrahydronaphthalen-1-yl)phenyl)piperazin-1-yl)methyl)cyclohexyl)methyl)piperazin-1-yl)pyridinecarboxamide] is less than 0.025 µM.

As for `O=C1CCC(NC(=O)c2ccc(N3CCN(C[C@H]4CCCC[C@@H]4CN4CCN(c5ccc([C@@H]6c7ccc(O)cc7CC[C@@H]6c6ccccc6)cc5)CC4)CC3)cn2)C(=O)N1` (stereo partly drawn) [III-2, N-(2,6-dioxopiperidin-3-yl)-5-(4-(((1S,2S)-2-((4-(4-((1R,2S)-6-hydroxy-2-phenyl-1,2,3,4-tetrahydronaphthalen-1-yl)phenyl)piperazin-1-yl)methyl)cyclohexyl)methyl)piperazin-1-yl)pyridinecarboxamide], the 50% inhibitory concentration (IC50) is less than 0.1 µM. The result for `O=C1CCC(NC(=O)c2ccc(C3CCN(C[C@@H]4CCCC[C@H]4CN4CCN(c5ccc([C@@H]6c7ccc(O)cc7CC[C@@H]6c6ccccc6)cc5)CC4)CC3)cn2)C(=O)N1` (stereo partly drawn) [III-3, N-(2,6-dioxopiperidin-3-yl)-5-(1-(((1R,2R)-2-((4-(4-((1R,2S)-6-hydroxy-2-phenyl-1,2,3,4-tetrahydronaphthalen-1-yl)phenyl)piperazin-1-yl)methyl)cyclohexyl)methyl)piperidin-4-yl)pyridinecarboxamide] reads less than 0.1 µM; that for `Cn1nc(C2CCC(=O)NC2=O)c2cc(F)c(N3CCN(C[C@@H]4CCCC[C@H]4CN4CCN(c5ccc([C@@H]6c7ccc(O)cc7CC[C@@H]6c6ccccc6)cc5)CC4)CC3)cc21` (stereo partly shown) [IV-1], less than 0.05 µM. Consider `Cn1nc(C2CCC(=O)NC2=O)c2ccc(N3CCN(C[C@@H]4CCCC[C@H]4CN4CCN(c5ccc([C@@H]6c7ccc(O)cc7CC[C@@H]6c6ccccc6)cc5)CC4)CC3)cc21` (stereo partly drawn) [IV-3, 3-(6-(4-(((1R,2R)-2-((4-(4-((1R,2S)-6-hydroxy-2-phenyl-1,2,3,4-tetrahydronaphthalen-1-yl)phenyl)piperazin-1-yl)methyl)cyclohexyl)methyl)piperazin-1-yl)-1-methyl-1H-indazol-3-yl)piperidine-2,6-dione], for which the IC50 was less than 0.025 µM. The result for `Cn1nc(C2CCC(=O)NC2=O)c2ccc(N3CCN(C[C@H]4CCCC[C@@H]4CN4CCN(c5ccc([C@@H]6c7ccc(O)cc7CC[C@@H]6c6ccccc6)cc5)CC4)CC3)cc21` (stereo partly drawn) [IV-4, 3-(6-(4-(((1S,2S)-2-((4-(4-((1R,2S)-6-hydroxy-2-phenyl-1,2,3,4-tetrahydronaphthalen-1-yl)phenyl)piperazin-1-yl)methyl)cyclohexyl)methyl)piperazin-1-yl)-1-methyl-1H-indazol-3-yl)piperidine-2,6-dione] reads less than 0.1 µM.

Regarding `Cn1nc(N2CCC(=O)NC2=O)c2cc(F)c(N3CCN(C[C@@H]4CCCC[C@H]4CN4CCN(c5ccc([C@@H]6c7ccc(O)cc7CC[C@@H]6c6ccccc6)cc5)CC4)CC3)cc21` [IV-5], the IC50 is less than 0.025 µM. For the molecule `Cn1nc(C2CCC(=O)NC2=O)c2cc(F)c(C3CCN(C[C@H]4CCCC[C@@H]4CN4CCN(c5ccc([C@@H]6c7ccc(O)cc7CC[C@@H]6c6ccccc6)cc5)CC4)CC3)cc21` (stereo partly drawn) [IV-10, 3-(5-fluoro-6-(1-(((1S,2S)-2-((4-(4-((1R,2S)-6-hydroxy-2-phenyl-1,2,3,4-tetrahydronaphthalen-1-yl)phenyl)piperazin-1-yl)methyl)cyclohexyl)methyl)piperidin-4-yl)-1-methyl-1H-indazol-3-yl)piperidin-2,6-dione], the IC50 is less than 0.05 µM. In turn, `O=C1CCC(n2ncc3cc(N4CCN(C[C@@H]5CCCC[C@H]5CN5CCN(c6ccc([C@@H]7c8ccc(O)cc8CC[C@@H]7c7ccccc7)cc6)CC5)CC4)c(F)cc32)C(=O)N1` (stereo partly shown) [VI-5] yielded an IC50 of less than 0.05 µM. The result for `O=C1CCC(n2ncc3cc(N4CCN(C[C@@H]5CCCC[C@H]5CN5CCN(c6ccc([C@@H]7c8ccc(O)cc8CC[C@@H]7c7ccccc7)cc6)CC5)CC4)ccc32)C(=O)N1` (stereo partly shown) [VI-6] reads less than 0.1 µM. Molecule `Cc1nn(C2CCC(=O)NC2=O)c2ccc(C3CCN(C[C@@H]4CCCC[C@H]4CN4CCN(c5ccc([C@@H]6c7ccc(O)cc7CC[C@@H]6c6ccccc6)cc5)CC4)CC3)cc12` (stereo partly shown) [VI-8] returned an IC50 of less than 0.05 µM.

`Cc1nn(C2CCC(=O)NC2=O)c2cc(F)c(C3CCN(C[C@@H]4CCCC[C@H]4CN4CCN(c5ccc([C@@H]6c7ccc(O)cc7CC[C@@H]6c6ccccc6)cc5)CC4)CC3)cc12` (stereo partly shown) [VI-9] came in with an IC50 of less than 0.1 µM. The result for `Cn1nc(N2CCC(=O)NC2=O)c2cc(F)c(C3CC4CCC(C3)N4C[C@@H]3CCCC[C@H]3CN3CCN(c4ccc([C@@H]5c6ccc(O)cc6CC[C@@H]5c5ccccc5)cc4)CC3)cc21` (stereo partly shown) [VI-17] reads less than 0.025 µM; that for `Cn1nc(N2CCC(=O)NC2=O)c2cc(F)c(C3CCN(C[C@@H]4CCCC[C@H]4CN4CCN(c5ccc([C@@H]6c7ccc(O)cc7CC[C@@H]6c6ccccc6)cc5)CC4)C4(CC4)C3)cc21` (stereo partly shown) [VI-18], less than 0.025 µM.

On to `Cn1nc(N2CCC(=O)NC2=O)c2cc(F)c(C3CCN(C4CCN(C[C@@H]5CCCC[C@H]5CN5CCN(c6ccc([C@@H]7c8ccc(O)cc8CC[C@@H]7c7ccccc7)cc6)CC5)CC4)CC3)cc21` [VI-19], for which the IC50 is less than 0.05 µM.

In turn, `C[C@@H]1CC(c2cc3c(cc2F)c(N2CCC(=O)NC2=O)nn3C)CCN1C[C@@H]1CCCC[C@H]1CN1CCN(c2ccc([C@@H]3c4ccc(O)cc4CC[C@@H]3c3ccccc3)cc2)CC1` (stereo partly shown) [VI-20] returned an IC50 of less than 0.025 µM. The result for `C[C@H]1CC(c2cc3c(cc2F)c(N2CCC(=O)NC2=O)nn3C)CCN1C[C@@H]1CCCC[C@H]1CN1CCN(c2ccc([C@@H]3c4ccc(O)cc4CC[C@@H]3c3ccccc3)cc2)CC1` (stereo partly shown) [VI-21] reads less than 0.05 µM. As for `C[C@@H]1CC(c2cc3c(cc2F)c(N2CCC(=O)NC2=O)nn3C)C[C@H](C)N1C[C@@H]1CCCC[C@H]1CN1CCN(c2ccc([C@@H]3c4ccc(O)cc4CC[C@@H]3c3ccccc3)cc2)CC1` (stereo partly shown) [VI-22], the IC50 is less than 0.05 µM.

As for `Cn1nc(N2CCC(=O)NC2=O)c2cc(F)c(C3CCC(N4CCN(C[C@@H]5CCCC[C@H]5CN5CCN(c6ccc([C@@H]7c8ccc(O)cc8CC[C@@H]7c7ccccc7)cc6)CC5)CC4)CC3)cc21` (stereo partly shown) [VI-24], the IC50 was less than 0.025 µM. For `Cn1nc(N2CCC(=O)NC2=O)c2cc(F)c(C3CCC(N(C[C@@H]4CCCC[C@H]4CN4CCN(c5ccc([C@@H]6c7ccc(O)cc7CC[C@@H]6c6ccccc6)cc5)CC4)C4CC4)CC3)cc21` (stereo partly shown) [VI-25], the IC50 is less than 0.1 µM. The result for `Cn1nc(N2CCC(=O)NC2=O)c2cc(F)c(N3CC4(CN(C[C@@H]5CCCC[C@H]5CN5CCN(c6ccc([C@@H]7c8ccc(O)cc8CC[C@@H]7c7ccccc7)cc6)CC5)C4)C3)cc21` [VI-26] reads less than 0.05 µM. The molecule `Cn1nc(N2CCC(=O)NC2=O)c2cc(F)c(N3CC4(CCN(C[C@@H]5CCCC[C@H]5CN5CCN(c6ccc([C@@H]7c8ccc(O)cc8CC[C@@H]7c7ccccc7)cc6)CC5)CC4)C3)cc21` [VI-27] gave an IC50 of less than 0.025 µM. The result for `COC1(c2cc3c(cc2F)c(N2CCC(=O)NC2=O)nn3C)CCN(C[C@@H]2CCCC[C@H]2CN2CCN(c3ccc([C@@H]4c5ccc(O)cc5CC[C@@H]4c4ccccc4)cc3)CC2)CC1` [VI-28] reads less than 0.025 µM.
